Consider 1 compound from patent publication US20080107625A1, “Inhibitors of Hepatitis C Virus” (Bristol-Myers Squibb Company, priority 2006, published 2008).

The target in the test is T1, HCV NS3/4A protease complex, H77 strain (Hepatitis C virus genotype 1a, UniProt P27958, C1454S/C1711G).
T1 construct: recombinant HCV NS3/4A protease complex (amino acids 1027 to 1711) for these strains; His-tag (inferred from pET21b vector and Ni-NTA purification); made in house; host or cells: Escherichia coli BL21 (DE3), pET21b
T1 sequence (P27958 1027-1711 C1454S/C1711G, one chain of several): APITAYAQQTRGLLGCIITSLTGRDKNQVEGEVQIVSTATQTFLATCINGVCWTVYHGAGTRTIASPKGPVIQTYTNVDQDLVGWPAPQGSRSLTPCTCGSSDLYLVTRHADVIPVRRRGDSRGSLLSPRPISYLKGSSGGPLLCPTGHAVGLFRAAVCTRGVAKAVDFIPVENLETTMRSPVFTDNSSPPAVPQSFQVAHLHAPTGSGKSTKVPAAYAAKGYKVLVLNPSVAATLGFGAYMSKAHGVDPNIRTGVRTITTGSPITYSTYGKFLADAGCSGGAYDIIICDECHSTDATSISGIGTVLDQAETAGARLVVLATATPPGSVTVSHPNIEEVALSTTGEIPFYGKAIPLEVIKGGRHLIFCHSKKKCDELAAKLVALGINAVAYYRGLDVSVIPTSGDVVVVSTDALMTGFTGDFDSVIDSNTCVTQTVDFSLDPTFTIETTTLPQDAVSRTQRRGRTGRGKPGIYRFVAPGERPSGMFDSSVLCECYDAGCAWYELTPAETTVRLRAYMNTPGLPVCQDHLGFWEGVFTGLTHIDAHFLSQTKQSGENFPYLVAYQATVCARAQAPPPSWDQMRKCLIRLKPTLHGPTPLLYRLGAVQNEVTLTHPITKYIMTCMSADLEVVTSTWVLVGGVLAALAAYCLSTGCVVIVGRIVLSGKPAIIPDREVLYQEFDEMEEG
The experiment in a line: FRET peptide assay to monitor HCV NS3/4A proteolytic activity (H77 strain). In kind it is biochemical. The conditions noted are these: H77 strain (1a genotype). From the text: HCV NS3 protease complexes, derived from the BMS strain, H77 strain or J4L6S strain, were generated, as described below. These purified recombinant proteins were generated for use in a homogeneous assay (see below) to provide an indication of how effective compounds of the present disclosure would be in inhibiting HCV NS3 proteolytic activity.
The H77 and J4L6S strains were used for production of recombinant NS3/4A protease complexes. DNA encoding the recombinant HCV NS3/4A protease complex (amino acids 1027 to 1711) for these strains were manipulated as described by P. Gallinari et al. (see Gallinari P, Paolini C, Brennan D, Nardi C, Steinkuhler C, De Francesco R. Biochemistry. 38(17):5620-32, (1999)). Briefly, a three-lysine solubilizing tail was added at the 3′-end of the NS4A coding region. The cysteine in the P1 position of the NS4A-NS4B cleavage site (amino acid 1711) was changed to a glycine to avoid the proteolytic cleavage of the lysine tag. Furthermore, a cysteine to serine mutation was introduced by PCR at amino acid position 1454 to prevent the autolytic cleavage in the NS3 helicase domain. […]

Usually IC50 stands for the concentration that gives 50% inhibition.

SMILES strings stand for the structures.

`CC(C)(C)OC(=O)N[C@H]1CN(C2CC2)CCC/C=C\C2C[C@@]2(C(=O)NS(=O)(=O)C2CC2)NC(=O)[C@@H]2C[C@@H](Oc3ccccn3)CN2C1=O` (stereo partly shown) [Compound 1] showed an IC50 of 18 nM.
